The results in this text go back to ChEMBL document CHEMBL1201862, “PubChem BioAssay data set” (2004).

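Exposure lasted 48 hours, with cells grown in 96-well plates and compounds tested at five concentrations. GI50 marks 50% less growth.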 Calls of active or inactive are those of the source. No stated cut-off is given here; in the data, active = GI50 up to about 1.1 µM and inactive = higher.

Some test systems named below: Malme-3M; NCI-H23; SK-MEL-2; OVCAR-5; TK-10; MCF7; SN12C; HOP-92; SK-MEL-5; A498; SF-539; HT-29; Hs-578T; LOX IMVI; A549; PC-3; NCI/ADR-RES; HOP-62; CCRF-CEM.
Holding throughout (assay): growth of human tumour cells (NCI), 48 h

As for `CCN(CC)CCNc1ccc2nnn3c4ccc(OC(C)=O)cc4c(=O)c1c23`, the GI50 in the assay on Malme-3M is 1.11 µM (active); with NCI-H23, 3.77 µM (inactive); with SK-MEL-2, 14.8 µM (inactive); in the assay on OVCAR-5, 11.7 µM (inactive); with TK-10, 3.52 µM (inactive); in the assay with MCF7 it was 2.16 µM (inactive). In addition, the GI50 in the assay with SN12C was 2.26 µM (inactive); in the assay on HOP-92, 3.9 µM (inactive); in the assay on SK-MEL-5 it was 1.88 µM (inactive); in the assay with A498, 6.76 µM (inactive); in the assay with SF-539, 1.67 µM (inactive); with HT-29, 1.47 µM (inactive). Besides, the GI50 in the assay with Hs-578T was 4.39 µM (inactive); in the assay on LOX IMVI, 1.47 µM (inactive); with A549 it was 3.14 µM (inactive); in the assay on PC-3, 3.62 µM (inactive); with NCI/ADR-RES, 4.45 µM (inactive); in the assay with HOP-62, 1.98 µM (inactive). Also, in the assay on CCRF-CEM, the GI50 was 0.644 µM (active).

In the case of `O=c1oc2ccccc2cc1-c1ccc([N+](=O)[O-])cc1`, the GI50 with Malme-3M, in the assay with NCI-H23, with SK-MEL-2, with OVCAR-5, in the assay with TK-10 and in the assay on MCF7 was > 100 µM (inactive) in each case. In addition, the GI50 is > 100 µM (inactive) in the assay on SN12C; > 100 µM (inactive) with HOP-92; 53 µM (inactive) in the assay on SK-MEL-5; 85.5 µM (inactive) in the assay on A498; 17.9 µM (inactive) in the assay on SF-539; > 100 µM (inactive) in the assay with HT-29. The GI50 was 99.5 µM (inactive) with Hs-578T; > 100 µM (inactive) in the assay with LOX IMVI; 85.9 µM (inactive) in the assay on A549; > 100 µM (inactive) with PC-3; > 100 µM (inactive) with NCI/ADR-RES; > 100 µM (inactive) in the assay on HOP-62. For the same compound, the GI50 in the assay on CCRF-CEM is > 100 µM (inactive).

Take `CCOP(=O)(OCC)C(Cc1ccc(Cl)cc1)NS(=O)(=O)c1ccc(C)cc1` (configuration not stated): the GI50 in the assay with Malme-3M, in the assay on NCI-H23, in the assay with SK-MEL-2, with OVCAR-5, with TK-10 and in the assay with MCF7 was > 100 µM (inactive) in each case. Besides, the GI50 in the assay with SN12C was 67.6 µM (inactive); in the assay with HOP-92 it was > 100 µM (inactive); in the assay with SK-MEL-5, > 100 µM (inactive); in the assay on A498 it was > 100 µM (inactive); with SF-539 it was > 100 µM (inactive); in the assay on HT-29, > 100 µM (inactive). The GI50 with Hs-578T, in the assay with LOX IMVI, in the assay on A549, in the assay on PC-3, in the assay on NCI/ADR-RES and in the assay on HOP-62 was > 100 µM (inactive) throughout. Also, the GI50 with CCRF-CEM was > 100 µM (inactive).

Regarding `O=C1C=CC2(C=C1)O[C@H](Cc1ccccc1)[C@@H](Cc1ccccc1)O2`, the GI50 is 1.48 µM (inactive) in the assay on Malme-3M; 1.16 µM (inactive) in the assay with NCI-H23; 1.41 µM (inactive) with SK-MEL-2; 0.281 µM (active) in the assay on OVCAR-5; 0.506 µM (active) in the assay with TK-10; 0.256 µM (active) in the assay on MCF7. In addition, the GI50 in the assay on SN12C was 0.665 µM (active); in the assay on HOP-92 it was 1.01 µM (active); with SK-MEL-5 it was 0.568 µM (active); in the assay on A498, 5.74 µM (inactive); in the assay on SF-539, 0.37 µM (active); with HT-29, 0.964 µM (active). Further, the GI50 was 0.716 µM (active) in the assay on Hs-578T; 0.223 µM (active) in the assay with LOX IMVI; 4.62 µM (inactive) in the assay on A549; 0.873 µM (active) in the assay with PC-3; 0.303 µM (active) with NCI/ADR-RES; 1.15 µM (inactive) with HOP-62. For the same compound, the GI50 with CCRF-CEM is 0.102 µM (active).

Regarding `CC1=NN(C(=O)CC(=O)Nc2cccc(C)c2)C(=O)C1/N=N/c1ccc(C(=O)O)cc1` (configuration not stated), the GI50 in the assay on Malme-3M, with NCI-H23, in the assay with SK-MEL-2, in the assay with OVCAR-5, in the assay with TK-10 and in the assay on MCF7 was > 100 µM (inactive) in each case. Besides, the GI50 was > 100 µM (inactive) in the assay with SN12C; 34.9 µM (inactive) in the assay with HOP-92; > 100 µM (inactive) in the assay on SK-MEL-5; > 100 µM (inactive) in the assay on A498; > 100 µM (inactive) in the assay on SF-539; > 100 µM (inactive) in the assay on HT-29. Besides, the GI50 with Hs-578T, in the assay on LOX IMVI, with A549, with PC-3, with NCI/ADR-RES and in the assay on HOP-62 was > 100 µM (inactive) in each case. Besides, the GI50 in the assay with CCRF-CEM is > 100 µM (inactive).

With `Nc1ccccc1C#CC(=O)c1cccc(C(F)(F)F)c1`, the GI50 was 6.1 µM (inactive) with Malme-3M; 1.97 µM (inactive) in the assay on NCI-H23; 1.18 µM (inactive) in the assay with SK-MEL-2; 6.59 µM (inactive) with OVCAR-5; 17.2 µM (inactive) with TK-10; 2.89 µM (inactive) in the assay on MCF7. Besides, the GI50 was 2.06 µM (inactive) with SN12C; 1.99 µM (inactive) in the assay with HOP-92; 2.35 µM (inactive) with SK-MEL-5; 18.5 µM (inactive) with A498; 3.18 µM (inactive) in the assay on SF-539; 4.16 µM (inactive) in the assay on HT-29. For the same compound, the GI50 with Hs-578T is 2.56 µM (inactive); in the assay on LOX IMVI it was 1.46 µM (inactive); with A549 it was 16.8 µM (inactive); in the assay with PC-3, 3.41 µM (inactive); with NCI/ADR-RES, 4.89 µM (inactive); with HOP-62 it was 7.24 µM (inactive). Also, the GI50 with CCRF-CEM was 0.867 µM (active).

With `CC(/C=C/C=C/C=C/C=C/C=C/C(=O)C1=C(O)C(CCC(=O)O)N(C)C1=O)=C\C(C)C(OC1CC(O)C(O)C(C)O1)C(C)C` (configuration not stated), the GI50 in the assay with Malme-3M was 2.23 µM (inactive); in the assay on NCI-H23, 2.62 µM (inactive); in the assay on SK-MEL-2 it was 1.78 µM (inactive); in the assay on OVCAR-5, 2.27 µM (inactive); in the assay with TK-10 it was 2.49 µM (inactive); with MCF7, 4.35 µM (inactive). For the same compound, the GI50 in the assay with SN12C is 3.33 µM (inactive); in the assay with HOP-92, 2.72 µM (inactive); in the assay with SK-MEL-5, 1.91 µM (inactive); with A498, 2.84 µM (inactive); in the assay with SF-539, 2.56 µM (inactive); with HT-29, 3.02 µM (inactive). Further, the GI50 in the assay on Hs-578T was 5.85 µM (inactive); with LOX IMVI it was 3.44 µM (inactive); in the assay on A549, 3.19 µM (inactive); in the assay with PC-3, 3.32 µM (inactive); in the assay on NCI/ADR-RES it was 13 µM (inactive); in the assay on HOP-62 it was 1.87 µM (inactive). Also, the GI50 with CCRF-CEM was 3.26 µM (inactive).

For `N=C(N)N/N=C/c1nc2n(c1[N+](=O)[O-])CCS2`, the GI50 was 15.6 µM (inactive) in the assay on Malme-3M; 14.5 µM (inactive) in the assay with NCI-H23; 17.5 µM (inactive) in the assay with SK-MEL-2; 43.8 µM (inactive) in the assay on OVCAR-5; 40.7 µM (inactive) in the assay with TK-10; 15 µM (inactive) in the assay with MCF7. Moreover, the GI50 with SN12C is 22 µM (inactive); in the assay on HOP-92, > 100 µM (inactive); in the assay on SK-MEL-5 it was 18.5 µM (inactive); with A498, 43.3 µM (inactive); with SF-539, 29 µM (inactive); in the assay with HT-29, 30.2 µM (inactive). Further, the GI50 was 30.3 µM (inactive) in the assay on Hs-578T; 15.7 µM (inactive) with LOX IMVI; 26.8 µM (inactive) in the assay on A549; 31.6 µM (inactive) in the assay on PC-3; > 100 µM (inactive) with NCI/ADR-RES; 41.4 µM (inactive) in the assay with HOP-62.

`CC(=O)c1ccccc1NS(=O)(=O)c1ccc2nc(C)n(NS(=O)(=O)c3ccccc3C(C)=O)c(=O)c2c1`: the GI50 in the assay on Malme-3M, in the assay with NCI-H23, in the assay with SK-MEL-2, in the assay with OVCAR-5, in the assay on TK-10 and in the assay with MCF7 was > 100 µM (inactive) throughout. In addition, the GI50 in the assay on SN12C, in the assay on HOP-92, in the assay on SK-MEL-5, with A498, in the assay with SF-539 and with HT-29 was > 100 µM (inactive) each time. Also, the GI50 in the assay with Hs-578T, in the assay with LOX IMVI, in the assay with PC-3, in the assay on NCI/ADR-RES, in the assay on HOP-62 and in the assay on CCRF-CEM was > 100 µM (inactive) each time.

For the compound `CC1(C)OC2C(CO)OC(n3ccc(N)nc3=O)C2O1` (configuration not stated), the GI50 in the assay with Malme-3M, in the assay on NCI-H23, in the assay on SK-MEL-2, in the assay on OVCAR-5, in the assay on TK-10 and in the assay on MCF7 was > 100 µM (inactive) in each case. For the same compound, the GI50 in the assay on SN12C is > 100 µM (inactive); in the assay with HOP-92, > 100 µM (inactive); in the assay with SK-MEL-5, > 100 µM (inactive); in the assay with A498, 21.5 µM (inactive); with SF-539, > 100 µM (inactive); with Hs-578T, > 100 µM (inactive). The GI50 in the assay on LOX IMVI, in the assay with A549, with PC-3, in the assay with NCI/ADR-RES, in the assay with HOP-62 and in the assay with CCRF-CEM was > 100 µM (inactive) in each case.
